The values below come from patent publication US9907765B2, “Treatment of connective tissue diseases of the skin” (Cipher Pharmaceuticals, Inc., priority 2005, dated 2018).

The subject of series [1] is patients suffering from discoid Lupus Erythematosus. As to the kind of experiment: Topical treatment of cutaneous manifestations in patients with discoid Lupus Erythematosus. The class given is in vivo, human. The following applies: patient with Discoid Lupus Erythematosus, after 3 weeks treatment. From the text: (§1) Examples 2 to 5 concern the treatment of cutaneous manifestation in patients suffering from discoid Lupus Erythematosus or subacute Lupus Erythematosus with the topical composition of Example 1 under the control of a medical doctor of Bispebjerg Hospital, Denmark. The composition was applied to affected areas once or twice per day.
A person had been suffering from discoid Lupus Erythematosus for 18 years. Their arms were somewhat affected and the fingers were severely affected with acrocyanosis. During the years, the person had regularly been treated with strong topical steroids, but with limited effect.
During an aggravation of the disease, which especially affected the fingers, the person initiated a treatment with the emulsion according to example 1 on the fingers.
A person had been suffering from discoid Lupus Erythematosus for 6 years. The symptoms started on the chin, but had spread to most of the face.
During an aggravation of the symptoms, the subject initiated a twice daily treatment with the emulsion according to example 1.
A person had been suffering from discoid Lupus Erythematosus for 32 years. The disease was very severe with a strong affection of the arms and the back and with elements spread to other parts of the body. The person had been treated with ercoquin and strong topical corticosteroids, but with limited effect. […]

For series [2], the system named is patients suffering from subacute Lupus Erythematosus. Briefly: Topical treatment of cutaneous manifestations in patients with subacute Lupus Erythematosus. The conditions noted are these: patient with Sub-acute Cutaneous Lupus Erythematosus, after 8 weeks of treatment. The format is in vivo, human.
Text: as §1
A person had been suffering from subacute Lupus Erythematosus for 16 years. The subject was affected on large areas of the body with elements on the back, the breast and the face.
The person has previously been treated with oral prednisolone, chlorochin, thalidomide and strong topical steroids, but all with limited or no effect.
During an aggravation of the symptoms, the person initiated a twice daily treatment with the emulsion according to example 1.

For series [3], the system named is Albino guinea pigs of Dunkin-Hartley strain. Briefly: Skin sensitization test according to the Magnusson and Kligman method (O.E.C.D. Guideline No 406). The class given is in vivo, guinea pig. The protocol:
Assessment of sensitising properties of R-salbutamol. Test for skin sensitization is carried out according to the Magnusson and Kligman method (J. Invest. Dermatol. 1969. 52, 268-276) and in accordance with O.E.C.D. Guideline No 406 of Jul. 17, 1992, and the test method B.6 of the 96/54 E.E.C Directive. The test item (R-salbutamol as the sulphate salt) was diluted with distilled water to prepare a concentration of 0.5% (w/v). Albino guinea pigs of Dunkin-Hartley strain were exposed to the test item after an acclimatisation period of at least five days. The Maximum Non Necrotizing Concentration (M.N.N.C.) was determined by injecting by intradermal route the following concentrations of the test item 0.25%, 0.125%, 0.0625%, 0.0312% and 0.0156% diluted in physiological saline solution. Pre-Maximum Non Irritant Concentration (pre-M.N.I.C.) was determined by application of the test item under an occlusive dressing during 24 hours, at the following concentrations: 0.5%, 0.25%, 0.125% and 0.0625% diluted in physiological saline solution. Maximum Non Irritant Concentration (M.N.I.C.) was determined by initially establishing an induction phase by intradermal injection with a physiological saline solution and by topical application of distilled water followed by a 18-day rest phase. […]

Take “1-[[(1,1-Dimethylethyl)amino]methyl]-4-hydroxy-1,3-benzenedimethanol [Salbutamol]”: the “improvement of inflamed lesions” value in series [1] is on record as “significant improvement”. The “remission of the cutaneous symptoms” value in series [2] was “complete remission”.
On to `CC(C)(C)NC[C@H](O)c1ccc(O)c(CO)c1` [R-salbutamol], for which the “macroscopic cutaneous reactions attributable to allergy” value in series [3] (challenge phase, after removal of 24 h occlusive dressing, induction with test item at 0.5%) was “No macroscopic cutaneous reactions attributable to allergy”. Besides, the “skin sensitization following topical application” value in series [3] (topical application to skin) is reported as “does not confer skin sensitization”.
